Reference: US9402837B2, “Method for the treatment of neurological disorders by enhancing the activity of β-glucocerebrosidase” (Amicus Therapeutics, Inc., priority 2006, dated 2016)
Where a name gives a salt, the structure may show the parent alone.

What was measured:
[1] = Phase I pharmacokinetics of oral IFG tartrate in healthy volunteers; format: in vivo, human; conditions: for accumulation after repeated doses: multiple-dose study, 7 days oral, Day 1 vs Day 7
Procedure: (§1) In a first-in-human single ascending dose study (1a), doses of 8, 25, 75, 150 (two cohorts), and 300 mg were administered (6 active, 2 placebo in each cohort). In a multiple ascending dose study (1b), doses of 25, 75, and 225 mg were administered daily for seven days (6 active, 2 placebo in each cohort). In both studies, of the eight subjects in each group; six were randomized to receive IFG tartrate, and two subjects received placebo. Subjects were confined from the evening of day-1 until 24 hrs after completion of dosing. In the phase 1a study subjects returned at 48 hrs (PK sampling) and 7 days (safety follow-up) following dosing. In the phase 1b study subjects returned at 48 h (PD sampling), 7 days (PD sampling and safety follow-up), and 14 days (PD sampling) following the last dose
Subjects were healthy male and female volunteers between 19 and 55 years of age (inclusive) consisting of members of the community at large.
Blood samples (10 mL each) were collected in blood collection tubes containing EDTA before dosing was determined at regular intervals for the phas 1a during 48 hr following dosing. In the phase 1b study a full IFG tartrate pharmacokinetic profile was determined for 24 hr following the first dose, Cmin values were obtained pre-dose on day 6 and 7, and another full profile was determined for 24 hr following the final, day 7, dose.

[2] = Phase I safety and tolerability in healthy volunteers; format: in vivo, human
Procedure: as §1
Safety was determined by evaluating vital signs, laboratory parameters (serum chemistry, hematology, and urinalysis), physical examination and by recording adverse events during the Treatment Period.
Safety data including laboratory evaluations, physical exams, adverse events, ECG monitoring and vital signs assessments were summarized by treatment group and point of time of collection. Descriptive statistics (arithmetic mean, standard deviation, median, minimum and maximum) were calculated for quantitative safety data as well as for the difference to baseline. Frequency counts were compiled for classification of qualitative safety data.

α-synuclein [3] = test: α-synuclein immunohistochemistry in transgenic mice over-expressing α-synuclein; format: in vivo
Procedure: 48 transgenic animals (male and female) were allocated to 6 groups (n=8) at an age of 5 to 6 weeks concerning baseline and 3 to 4 weeks, respectively concerning all other treatment groups at treatment start. One group of transgenic animals served as baseline group (5 weeks old) and was sacrificed untreated on day 0. One group of transgenic animals was treated with vehicle.
Mice (ages 3-4 weeks) were treated once daily (orally) at either 2 mg/kg; 20 mg/kg; or 200 mg/kg of IFG tartrate for 3 months. One group also was treated once every other day at 20 mg/kg.
Animals of the baseline group were sacrificed at an age of 5 weeks. All other animals were sacrificed at the end of the 3 months treatment period and blood for preparation of serum and macrophages as well as lung, brain and CSF were extracted. Therefore, all mice were sedated by standard inhalation anesthesia (Isofluran, Baxter). Cerebrospinal fluid was obtained by blunt dissection and exposure of the foramen magnum. Upon exposure, a Pasteur pipette was inserted to the approximate depth of 0.3-1 mm into the foramen magnum. CSF was collected by suctioning and capillary action until flow fully ceases. CSF was immediately frozen and kept at −80° C.
After CSF sampling, each mouse was placed in dorsal recumbence, the thorax was opened and a 26-gauge needle attached to a 1 cc syringe was inserted into the right cardiac ventricular chamber. Light suction was applied to the needle. Blood was separated into 2 parts. […] Mice were transcardially perfused with physiological (0.9%) saline and lung tissue as well as brain was rapidly removed. The lungs were rinsed in cold PBS (outside only) to remove blood and then they were quick frozen.
The brains were removed and hemisected. The right hemispheres of all mice were immersion fixed in freshly produced 4% paraformaldehyde/PBS (pH 7.4) for one hour at room temperature. Thereafter brains were transferred to a 15% sucrose PBS solution for 24 hours to ensure cryoprotection. On the next day brains were frozen in liquid isopentane and stored at −80° C. until used for histological investigations. To determine the effects of the IFG-tartrate treatment from 8 animals per group 10 μm-thick cryosections were cut for determination of alpha-synuclein pathology. All organs and tissues mentioned were sampled and from specific brain regions i.e. hippocampus, midbrain, frontal cortex and striatum of one hemibrain were extracted and frozen. The other brain half was processed for histological evaluation.
For evaluation of the number of α-synuclein positive cells and Lewy body like inclusions an immunohistochemical staining was carried out using the monoclonal human alpha-synuclein specific antibody (Alexis@; Cat#804-258-L001), dilution 1:5, detected with secondary Cy2 antibody (Jackson Immunoresearch®). The number of alpha-synuclein positive cells in five different layers, one slice per layer, was counted for evaluation in the whole hippocampus and cortex seperately.
Briefly, samples were washed for 10 min with PBS at room temperature, followed by fixing for 30 min at room temperature with 4% paraformaldehyde, followed by washing 2 times for 5 min each with PBS at room temperature. For Proteinase K-treated sections, sections were incubated in PBS containing 10 μg/ml proteinase-K for 10 minutes at room temperature. Next, samples were incubated for 15 min at room temperature with blocking solution to block endogenous peroxidase, followed by two more 5 min washes with PBS. Samples were then incubated for 60 min at room temperature with a blocking reagent to block non-specific binding, followed by two more 5 min washes with PBS. Samples were then incubated with M.O.M. diluent for 5 min at room temperature, followed by incubation with the primary antibody (dilution 1:5 in M.O.M. diluent) for 60 min with at room temperature. […]

α-synuclein [4] = test: α-synuclein accumulation in brains of V394L knock-in mice treated with CBE; format: in vivo; conditions: CBE daily i.p. for 30 days
Procedure: Mice homozygous for the point mutations D409H or V394L and expressing a low level of saposin C in a prosaposin knock-out background, were analyzed for accumulation of α-synuclein in the brain. These mice have been reported to accumulate glucosylceramide in the brain. Mice homozygous for the point mutations V394L only, were analyzed for α-synuclein accumulation with and without CBE treatment. […] Mice were administered CBE daily by interperitonally injection for 30 consequitive days ([…] calculated from the total weight of the mouse) and brains were analyzed by immunohistochemistry for accumulation of α-synuclein.
Brain tissue was frozen and fixed for immunohistochemistry with 4% paraformaldehyde and serial sections were co-labelled with anti-human α-synuclein (ab1903; Abcam, Cambridge, Mass.) and rabbit anti-ubiquitin (ab7780; Abcam, Cambridge, Mass.).

GCase [5] = target: GCase (Mus musculus (Mouse), UniProt P17439); test: In vivo GCase activity in normal mice upon treatment with IFG
Sequence of GCase (Mus musculus (Mouse), UniProt P17439) (P17439 20-515): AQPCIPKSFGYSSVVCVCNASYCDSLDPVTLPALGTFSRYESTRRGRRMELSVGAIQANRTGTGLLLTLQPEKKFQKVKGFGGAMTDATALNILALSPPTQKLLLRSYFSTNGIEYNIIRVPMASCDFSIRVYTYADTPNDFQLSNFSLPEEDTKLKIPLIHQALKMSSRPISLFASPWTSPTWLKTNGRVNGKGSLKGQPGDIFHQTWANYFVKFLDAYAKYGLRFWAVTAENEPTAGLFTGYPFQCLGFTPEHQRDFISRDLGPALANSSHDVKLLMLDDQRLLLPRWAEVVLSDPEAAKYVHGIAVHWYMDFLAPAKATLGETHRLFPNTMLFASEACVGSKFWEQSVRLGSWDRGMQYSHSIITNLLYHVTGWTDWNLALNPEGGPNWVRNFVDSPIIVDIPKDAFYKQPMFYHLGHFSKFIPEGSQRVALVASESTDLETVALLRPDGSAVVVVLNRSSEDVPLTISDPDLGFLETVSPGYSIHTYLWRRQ
Procedure: This Example provides information on the effects of isofagomine, a GCase-specific chaperone on mice. […] Ten male C57BL6 (25 g) mice per group were used. The drug was be given in the drinking water, therefore water consumption was monitored daily.
In the control group (0 mg/kg/day), the mice were dosed daily in the drinking water (no drug) and divided into two groups. Ten animals were euthanized after 4 weeks of treatment, blood was collected from the descending aorta or vena cava, and tissues were harvested and then necropsied.
In the test group, 10 mice were dosed daily in the drinking water with an administration aim of 200 mg/kg/day.
The blood samples were drawn into lithium heparin and spun for plasma. After bleeding, the spleen, lung, brain and liver were removed and placed into vials. The vials were put into dry ice for rapid freezing. The tissues and plasma were then analyzed for tissue levels of GCase.
Small portions of tissue were removed and added to 500 μl lysis buffer (20 mM sodium citrate and 40 mM disodium hydrogen phosphate, pH 4.0, including 0.1% Triton X-100). Tissues were then homogenized using a microhomogenizer for a brief time, followed by centrifugation at 10,000 rpm for 10 minutes at 4° C. Supernatants were transferred to a new tube and used for the enzyme assay.
The enhancement ratio is equal to the activity with the compound over the activity without the compound.

GCase [6] = target: GCase (Homo sapiens (Human), UniProt P04062); test: GCase enzymatic activity in healthy volunteers receiving IFG; format: in vivo
Sequence of GCase (Homo sapiens (Human), UniProt P04062) (P04062 40-536): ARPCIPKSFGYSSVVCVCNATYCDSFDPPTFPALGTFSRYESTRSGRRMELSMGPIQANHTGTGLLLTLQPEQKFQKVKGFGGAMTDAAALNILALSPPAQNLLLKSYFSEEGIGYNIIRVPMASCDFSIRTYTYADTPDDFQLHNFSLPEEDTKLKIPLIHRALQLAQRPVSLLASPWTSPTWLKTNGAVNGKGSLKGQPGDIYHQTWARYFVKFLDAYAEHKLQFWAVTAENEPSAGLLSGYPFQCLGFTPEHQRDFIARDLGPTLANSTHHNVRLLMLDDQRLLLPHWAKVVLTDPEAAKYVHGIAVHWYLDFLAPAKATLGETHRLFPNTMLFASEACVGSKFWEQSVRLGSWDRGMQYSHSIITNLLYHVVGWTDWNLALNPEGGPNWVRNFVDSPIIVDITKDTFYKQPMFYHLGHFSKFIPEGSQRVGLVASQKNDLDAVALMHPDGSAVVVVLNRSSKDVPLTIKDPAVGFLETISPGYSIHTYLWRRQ
Procedure: as §1
GCase activity was determined pre-dose on days 1, 3, 5, 7, 9, 14, and 21. Blood samples were cooled in an ice bath and centrifuged under refrigeration as soon as possible. Plasma samples were divided into two aliquots and stored at […] pending assay. At the end of the study, all samples were transferred to MDS Pharma Services Analytical Laboratories (Lincoln) for analysis.

SMILES	systemic exposure via the oral route ([1]; healthy volunteers)	accumulation after repeated doses [1]	plasma AUC and Cmax versus administered dose ([1]; single-dose study)	serious adverse events ([2]; healthy volunteers, both Phase I studies)	tolerability ([2]; healthy volunteers, single (8-300 mg) and multiple (25-225 mg, 7 days) oral doses)	number of α-synuclein immunoreactive cells in the hippocampus versus vehicle (α-synuclein [3]; 2 mg/kg daily, 3 months)	age-accompanied increase of α-synuclein positive cell load versus baseline (α-synuclein [3]; 2 mg/kg, mean of cortex and hippocampus)	accumulation of Proteinase K-resistant α-synuclein aggregates (α-synuclein [3]; 20 mg/kg, 3 months, single responding animal)	α-synuclein pathology versus controls (α-synuclein [3]; 20 mg/kg, daily or every other day, 3 months)	qualitative α-synuclein immunostaining versus control animals (α-synuclein [3]; 2 and 20 mg/kg b.w. daily, 3 months, cortex and hippocampus)	α-synuclein pathology in the cortex (α-synuclein [3]; 3 months treatment)	α-synuclein in the brain (α-synuclein [4])	wild-type GCase activity dose-response (GCase [5]; mice treated with 0, 1, 10, or 100 mg/kg/day)	GCase levels in tissues (GCase [5]; normal C57BL6 mice, 200 mg/kg/day in drinking water, liver, spleen, brain and lung)	sex differences in pharmacokinetic parameters ([1]; repeated doses)	adverse events most frequently reported ([2]; healthy adult subjects)	increase in GCase levels above baseline (GCase [6]; healthy volunteers, treatment period, dose-related, maximum reached)	GCase levels after removal of the drug (GCase [6]; two weeks after the last dose)
OC[C@H]1CNC[C@@H](O)[C@@H]1O [Isofagomine tartrate]	good systemic exposure	no unexpected accumulation	linearly correlated with administered dose	No serious adverse events occurred	generally well tolerated	reduced the number of immunoreactive cells in the hippocampus significantly	prevented mice from the age-accompanied increase of pathology	prevents the accumulation of these α-synuclein aggregates	not effective versus controls	strongly decreased background and decreased α-synuclein positive cell numbers in some	did not reach significance level in the cortex	–	–	–	–	–	–	–
O[C@H]1[C@H](O)[C@@H](O)[C@@H]2O[C@@H]2[C@@H]1O [CBE, conduritol-β-epoxide]	–	–	–	–	–	–	–	–	–	–	–	resulted in accumulation of α-synuclein in the brain	–	–	–	–	–	–
OC[C@H]1CNC[C@@H](O)[C@@H]1O [Isofagomine, (3R,4R,5R)-5-(hydroxymethyl)-3,4-piperidinediol]	–	Minimal accumulation	–	–	–	–	–	–	–	–	–	–	linear dose-response increase	increased	no observable sex differences	contact dermatitis, headache, nausea, increased serum bilirubin, dizziness, scab, ocular hyperaemia, and puncture site pain	approximately 3.5 fold	return to near baseline levels by day 21
